Earlier results on 1 compound are cited in article PMC12009570 (International Journal of Nanomedicine, 2025).

Assay in data set [1]: not given
The source holds these as a separate data set.

Structures are written as SMILES.

On to `Cl.O=C1[C@@H]2[C@H]3CC[C@H](C3)[C@@H]2C(=O)N1C[C@@H]1CCCC[C@H]1CN1CCN(c2nsc3ccccc23)CC1` [LSD, Lurasidone hydrochloride], for which, for the setting “conventional tablets, oral”, the oral bioavailability is reported as 9–19%. Further, for the setting “food effect”, the “AUC, times higher than in the fasted state” value is recorded as 2 times and the “Cmax, times higher than in the fasted state” value is 3 times. Besides, the “pH at which most soluble” value in data set [1] is recorded as 3.8.
